In PubChem BioAssay AID2060891 (Molecular Pharmacology Branch, DTP, NCI, 2025):

System: K98450-129-R-PDC complex spheroid growth, percent test/control
Experiment: Anticancer human tumor K98450-129-R-PDC patient-derived colon adenocarcinoma cell line growth inhibition [RAS]
Details: for IC50: curve of first compound; for viability, T/C: stronger effect = lower value; active = viability on the fitted dose curve at most 10% of control; inactive = the rest
Outline: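 Agents were tested in combination matrices in half-log decrements from a top concentration at or near clinical Cmax (10 microM if undetermined). Targets were multi-cell spheroids of tumour lines plus HUVEC and MSC stromal cells.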

[1] = second compound 0.00316 µM, first compound 0.0316 µM
[2] = second compound 0.00316 µM, first compound 0.1 µM
[3] = second compound 0.00316 µM, first compound 0.316 µM
[4] = second compound 0.00316 µM, first compound 1 µM
[5] = second compound 0.00316 µM, first compound 3.16 µM
[6] = second compound 0.00316 µM, first compound 10 µM
[7] = second compound 0.01 µM, first compound 0.0316 µM
[8] = second compound 0.01 µM, first compound 0.1 µM
[9] = second compound 0.01 µM, first compound 0.316 µM
[10] = second compound 0.01 µM, first compound 1 µM
[11] = second compound 0.01 µM, first compound 3.16 µM
[12] = second compound 0.01 µM, first compound 10 µM
[13] = second compound 0.0316 µM, first compound 0.0316 µM
[14] = second compound 0.0316 µM, first compound 0.1 µM
[15] = second compound 0.0316 µM, first compound 0.316 µM
[16] = second compound 0.0316 µM, first compound 1 µM
[17] = second compound 0.0316 µM, first compound 3.16 µM
[18] = second compound 0.0316 µM, first compound 10 µM
[19] = second compound 0.1 µM, first compound 0.0316 µM
[20] = second compound 0.1 µM, first compound 0.1 µM
[21] = second compound 0.1 µM, first compound 0.316 µM
[22] = second compound 0.1 µM, first compound 1 µM
[23] = second compound 0.1 µM, first compound 3.16 µM
[24] = second compound 0.1 µM, first compound 10 µM
[25] = second compound 0.316 µM, first compound 0.0316 µM
[26] = second compound 0.316 µM, first compound 0.1 µM
[27] = second compound 0.316 µM, first compound 0.316 µM
[28] = second compound 0.316 µM, first compound 1 µM
[29] = second compound 0.316 µM, first compound 3.16 µM
[30] = second compound 0.316 µM, first compound 10 µM
[31] = second compound 1 µM, first compound 0.0316 µM
[32] = second compound 1 µM, first compound 0.1 µM
[33] = second compound 1 µM, first compound 0.316 µM
[34] = second compound 1 µM, first compound 1 µM
[35] = second compound 1 µM, first compound 3.16 µM
[36] = second compound 1 µM, first compound 10 µM
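Note: spheroids exposed to agents for seven days before the viability readout.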
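Throughout, for viability, T/C: luminescence used as a proxy for viable cell amount.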

CC(=O)OC12COC1CC(O)C1(C)C(=O)C(O)C3=C(C)C(OC(=O)C(O)C(NC(=O)OC(C)(C)C)c4ccccc4)CC(O)(C(OC(=O)c4ccccc4)C21)C3(C)C (centres undefined) + C=CC(=O)N1CCN(c2nc(OCC3CCCN3C)nc3c(F)c(-c4nc(N)cc(C)c4C(F)(F)F)c(Cl)cc23)C(C)C1
< 31.6 nM: IC50 (second compound 0.1 µM) | IC50 (second compound 0.316 µM) | IC50 (second compound 1 µM)
270 nM: IC50 (second compound 0.00316 µM)
223 nM: IC50 (second compound 0.01 µM)
151 nM: IC50 (second compound 0.0316 µM)
inactive: viability, T/C [1] 91.4% | viability, T/C [2] 83.6% | viability, T/C [3] 44.3% | viability, T/C [4] 27.3% | viability, T/C [5] 23.6% | viability, T/C [6] 22.6% | viability, T/C [7] 88.2% | viability, T/C [8] 83.1% | viability, T/C [9] 35.4% | viability, T/C [10] 22.8% | viability, T/C [11] 20.8% | viability, T/C [12] 19.8% | viability, T/C [13] 71.7% | viability, T/C [14] 62.4% | viability, T/C [15] 27.7% | viability, T/C [16] 17.4% | viability, T/C [17] 16.7% | viability, T/C [18] 15.6% | viability, T/C [19] 50% | viability, T/C [20] 38.4% | viability, T/C [21] 16.3% | viability, T/C [22] 14.6% | viability, T/C [23] 14% | viability, T/C [24] 14.3% | viability, T/C [25] 35.4% | viability, T/C [26] 26.4% | viability, T/C [27] 14% | viability, T/C [28] 12.4% | viability, T/C [29] 12.4% | viability, T/C [30] 12.2% | viability, T/C [31] 26.3% | viability, T/C [32] 18.5% | viability, T/C [33] 13.7% | viability, T/C [34] 12.7% | viability, T/C [35] 12.4% | viability, T/C [36] 13.4%

CCC(CC)c1cc(NC2CCC(N)C2)n2nccc2n1 (centres undefined) + C=CC(=O)N1CCN(c2nc(OCC3CCCN3C)nc3c(F)c(-c4nc(N)cc(C)c4C(F)(F)F)c(Cl)cc23)C(C)C1
4560 nM: IC50 (second compound 0.01 µM)
1170 nM: IC50 (second compound 0.1 µM)
inactive: viability, T/C [1] 97.6% | viability, T/C [2] 93.8% | viability, T/C [3] 91.5% | viability, T/C [4] 87.3% | viability, T/C [5] 78.2% | viability, T/C [6] 13.5% | viability, T/C [7] 88.2% | viability, T/C [8] 86.8% | viability, T/C [9] 84.6% | viability, T/C [10] 85.8% | viability, T/C [11] 66.2% | viability, T/C [12] 15.1% | viability, T/C [13] 78.6% | viability, T/C [14] 73.3% | viability, T/C [15] 73.1% | viability, T/C [16] 60.4% | viability, T/C [17] 51.3% | viability, T/C [19] 48.2% | viability, T/C [20] 55.4% | viability, T/C [21] 51.9% | viability, T/C [22] 54.3% | viability, T/C [23] 34.1% | viability, T/C [25] 38.4% | viability, T/C [26] 38.9% | viability, T/C [27] 41% | viability, T/C [28] 37.3% | viability, T/C [29] 16.4% | viability, T/C [31] 32% | viability, T/C [32] 31.9% | viability, T/C [33] 33.3% | viability, T/C [34] 25.3% | viability, T/C [35] 11.1%
2770 nM: IC50 (second compound 0.0316 µM)
5160 nM: IC50 (second compound 0.00316 µM)
active: viability, T/C [18] 8.93% | viability, T/C [24] 8.77% | viability, T/C [30] 7.47% | viability, T/C [36] 8.2%
< 31.6 nM: IC50 (second compound 0.316 µM) | IC50 (second compound 1 µM)
